Laboratory results as given in patent US10123993B2, “Cyclic ureas as inhibitors of rock” (BRISTOL-MYERS SQUIBB COMPANY, priority 2015, dated 2018).
pIC50: −log10 of the molar value.

Each compound was assayed against ROCK2 (Homo sapiens, UniProt O75116) (assay: ROCK2 kinase inhibition assay (Caliper LABCHIP, FITC peptide substrate)). Settings: 5 μM ATP, 1.5 μM peptide substrate; value ranges.
Type: biochemical
Summary of the method: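 Dose-response curves gave IC50 from inhibition of peptide phosphorylation, measured by LabChip separation after EDTA stop. Reactions used 1.5 μM FITC-labelled peptide, 5 μM ATP, 20 mM HEPES pH 7.5 with MgCl2, Brij-35, DTT, and under 2% DMSO.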

Chain of ROCK2 (O75116 whole entry, species assumed): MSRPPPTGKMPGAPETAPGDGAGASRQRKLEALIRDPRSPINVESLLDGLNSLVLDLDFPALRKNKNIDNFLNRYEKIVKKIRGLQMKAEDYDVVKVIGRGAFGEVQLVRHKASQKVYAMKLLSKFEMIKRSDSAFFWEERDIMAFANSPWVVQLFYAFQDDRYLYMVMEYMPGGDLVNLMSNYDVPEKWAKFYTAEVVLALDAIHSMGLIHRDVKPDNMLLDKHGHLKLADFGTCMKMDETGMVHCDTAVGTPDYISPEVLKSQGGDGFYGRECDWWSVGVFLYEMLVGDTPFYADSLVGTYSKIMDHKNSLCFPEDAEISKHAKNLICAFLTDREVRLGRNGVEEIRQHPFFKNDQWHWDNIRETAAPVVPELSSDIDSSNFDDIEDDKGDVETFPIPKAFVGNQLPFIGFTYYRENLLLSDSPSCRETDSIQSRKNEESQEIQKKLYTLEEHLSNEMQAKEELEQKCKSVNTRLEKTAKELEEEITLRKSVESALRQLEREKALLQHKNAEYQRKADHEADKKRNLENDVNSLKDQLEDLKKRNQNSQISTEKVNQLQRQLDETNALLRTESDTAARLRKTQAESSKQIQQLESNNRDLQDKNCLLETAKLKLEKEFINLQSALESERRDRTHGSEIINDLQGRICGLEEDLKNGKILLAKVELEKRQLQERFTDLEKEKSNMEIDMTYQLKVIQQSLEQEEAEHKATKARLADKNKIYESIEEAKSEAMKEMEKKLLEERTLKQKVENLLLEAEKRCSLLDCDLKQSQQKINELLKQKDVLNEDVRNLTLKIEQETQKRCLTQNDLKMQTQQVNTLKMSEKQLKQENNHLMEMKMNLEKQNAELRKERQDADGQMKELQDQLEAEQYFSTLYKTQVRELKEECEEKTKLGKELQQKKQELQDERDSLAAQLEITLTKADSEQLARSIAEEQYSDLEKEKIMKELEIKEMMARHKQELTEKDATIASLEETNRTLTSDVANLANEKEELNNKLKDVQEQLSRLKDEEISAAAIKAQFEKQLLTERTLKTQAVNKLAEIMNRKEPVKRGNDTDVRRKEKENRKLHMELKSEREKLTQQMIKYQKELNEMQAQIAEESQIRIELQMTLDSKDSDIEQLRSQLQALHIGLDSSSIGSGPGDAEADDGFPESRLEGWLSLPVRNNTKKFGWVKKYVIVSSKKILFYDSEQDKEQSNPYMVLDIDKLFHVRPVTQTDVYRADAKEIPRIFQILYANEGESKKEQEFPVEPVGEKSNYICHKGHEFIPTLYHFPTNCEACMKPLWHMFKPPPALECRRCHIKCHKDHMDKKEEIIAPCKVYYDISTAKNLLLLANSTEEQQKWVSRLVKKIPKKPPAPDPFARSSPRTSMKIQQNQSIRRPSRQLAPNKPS

Row | SMILES | pIC50
1 | COc1cccc(C(CO)n2ccn(-c3ccc(-c4cn[nH]c4)c(OC)c3)c2=O)c1 (single isomer, unassigned) [Example 360, 1-(2-hydroxy-1-(3-methoxyphenyl)ethyl)-3-(3-methoxy-4-(1H-pyrazol-4-yl)phenyl)-1H-imidazol-2(3H)-one] | 5.70 to 6.70
2 | CCc1nc(-n2ccn(C(C)c3cc(F)cc(OC)c3)c2=O)ccc1-c1cn[nH]c1 (single isomer, unassigned) [Example 363, 1-(6-ethyl-5-(1H-pyrazol-4-yl)pyridin-2-yl)-3-(1-(3-fluoro-5-methoxyphenyl)ethyl)-1H-imidazol-2(3H)-one] | 5.70 to 6.70
3 | CCOc1cccc(C(C)n2ccn(-c3ccc(-c4cn[nH]c4)c(CC)n3)c2=O)c1 (single isomer, unassigned) [Example 365, 1-(1-(3-ethoxyphenyl)ethyl)-3-(6-ethyl-5-(1H-pyrazol-4-yl)pyridin-2-yl)-1H-imidazol-2(3H)-one] | 5.70 to 6.70
4 | CCOc1cccc(C(C)n2ccn(-c3ccc(-c4cn[nH]c4)cc3)c2=O)c1 (single isomer, unassigned) [Example 368, 1-(4-(1H-pyrazol-4-yl)phenyl)-3-(1-(3-ethoxyphenyl)ethyl)-1H-imidazol-2(3H)-one] | 5.70 to 6.70
5 | CCOc1cccc(C(C)n2ccn(-c3ccc(-c4cn[nH]c4)cn3)c2=O)c1 (single isomer, unassigned) [Example 371, 1-(5-(1H-pyrazol-4-yl)pyridin-2-yl)-3-(1-(3-ethoxyphenyl)ethyl)-1H-imidazol-2(3H)-one] | 6.70 to 7.70
6 | CCc1nc(-n2ccn(C(C)c3cccc(OCC4CC4)c3)c2=O)ccc1-c1cn[nH]c1 (single isomer, unassigned) [Example 372, 1-(1-(3-(cyclopropylmethoxy)phenyl)ethyl)-3-(6-ethyl-5-(1H-pyrazol-4-yl)pyridin-2-yl)-1H-imidazol-2(3H)-one] | 6.70 to 7.70

Continued, values first:

Row | pIC50 | SMILES
7 | 7.70 to 8.68 | COc1cccc(C(CO)n2ccn(-c3ccc(-c4cn[nH]c4)c(OC)c3)c2=O)c1 (single isomer, unassigned) [Example 361, 1-(2-hydroxy-1-(3-methoxyphenyl)ethyl)-3-(3-methoxy-4-(1H-pyrazol-4-yl)phenyl)-1H-imidazol-2(3H)-one]
8 | > 8.70 | CCc1nc(-n2ccn(C(C)c3cc(F)cc(OC)c3)c2=O)ccc1-c1cn[nH]c1 (single isomer, unassigned) [Example 362, 1-(6-ethyl-5-(1H-pyrazol-4-yl)pyridin-2-yl)-3-(1-(3-fluoro-5-methoxyphenyl)ethyl)-1H-imidazol-2(3H)-one]
9 | 6.70 to 7.70 | CCOc1cccc(C(C)n2ccn(-c3ccc(-c4cn[nH]c4)c(CC)n3)c2=O)c1 (single isomer, unassigned) [Example 364, 1-(1-(3-ethoxyphenyl)ethyl)-3-(6-ethyl-5-(1H-pyrazol-4-yl)pyridin-2-yl)-1H-imidazol-2(3H)-one]
10 | > 8.70 | COc1cc(F)cc(C(C)n2ccn(-c3ccc(-c4cn[nH]c4)cc3)c2=O)c1 (single isomer, unassigned) [Example 366, 1-(4-(1H-pyrazol-4-yl)phenyl)-3-(1-(3-fluoro-5-methoxyphenyl)ethyl)-1H-imidazol-2(3H)-one]
11 | 6.70 to 7.70 | COc1cc(F)cc(C(C)n2ccn(-c3ccc(-c4cn[nH]c4)cc3)c2=O)c1 (single isomer, unassigned) [Example 367, 1-(4-(1H-pyrazol-4-yl)phenyl)-3-(1-(3-fluoro-5-methoxyphenyl)ethyl)-1H-imidazol-2(3H)-one]
12 | 7.70 to 8.68 | CCOc1cccc(C(C)n2ccn(-c3ccc(-c4cn[nH]c4)cc3)c2=O)c1 (single isomer, unassigned) [Example 369, 1-(4-(1H-pyrazol-4-yl)phenyl)-3-(1-(3-ethoxyphenyl)ethyl)-1H-imidazol-2(3H)-one]
13 | 7.70 to 8.68 | CCOc1cccc(C(C)n2ccn(-c3ccc(-c4cn[nH]c4)cn3)c2=O)c1 (single isomer, unassigned) [Example 370, 1-(5-(1H-pyrazol-4-yl)pyridin-2-yl)-3-(1-(3-ethoxyphenyl)ethyl)-1H-imidazol-2(3H)-one]
